Biological target: recombinant DYRK1A kinase (Homo sapiens, UniProt Q13627)
Test: DYRK1A kinase assay (Ser/Thr 18 peptide Z-lyte FRET)
Assay type: biochemical
Settings: DYRK1A kinase activity; 15 μM ATP, 4 μM Ser/Thr peptide 18, one hour at room temperature
Method: Representative compounds were screened using the assay procedure for DYRK1A kinase activity as described below.
Each compound was dissolved in DMSO as a 10 mM stock and used to prepare compound source plates. Serial dilution (1:3, 11-point dose-response curves from 10 μM to 0.00016 μM) and compound transfer was performed using the ECHO 550 (Labcyte, Sunnyvale, Calif.) into 1536-well black-walled round bottom plates (Corning).
The DYRK1A kinase assay was run using the Ser/Thr 18 peptide Z-lyte assay kit according to manufacturer's instructions (Life Technologies—a Division of Thermo-Fisher). This is a non-radioactive assay using fluorescence resonance energy transfer (FRET) between coumarin and fluorescein to detect kinase activity which is represented as a ratio of coumarin emission/fluorescein emission.
Briefly, recombinant DYRK1A kinase, ATP and Ser/Thr peptide 18 were prepared in 1× Kinase buffer to final concentrations of 0.25 μg/mL, 15 μM, and 4 μM respectively. The mixture was allowed to incubate with the representative compounds for one hour at room temperature. All reactions were performed in duplicate. Unphosphorylated (“0% Control”) and phosphorylated (“100% control”) forms of Ser/Thr 18 served as control reactions. Additionally, an 11-point dose-response curve of Staurosporine (1 uM top) was run to serve as a positive compound control.
After incubation, Development Reagent A was diluted in Development Buffer then added to the reaction and allowed to further incubate for one hour at room temperature. The plate was read at Ex 400 Em 455 to detect the coumarin signal and Ex 400 Em 520 to measure the signal (EnVision Multilabel Plate Reader, PerkinElmer).
The Emission ratio (Em) was calculated as a ratio of the coumarin (C) emission signal (at 445 nm)/Fluorescein (F) emission signal (at 520 nm). The percent phosphorylation was then calculated using the following formula: [1−((Em ratio×F100%)−C100%)/((C0%−C100%)+(Em ratio×(F100%−F0%)))]. Dose-response curves were generated, and inhibitory concentration (IC50) values were calculated using non-linear regression curve fit in the Dotmatics' Studies Software (Bishops Stortford, UK).

Row | SMILES | EC50 [nM]
1 | CN1CCC(Oc2ncnc3ccc(-c4c[nH]c5ncccc45)cc23)CC1 [Compound 99, 4-((1-Methylpiperidin-4-yl)oxy)-6-(1H-pyrrolo[2,3-b]pyridin-3-yl) quinazoline] | 2
2 | CN1CCC(Nc2ncnc3ccc(-c4c[nH]c5ncccc45)cc23)CC1 [Compound 100, N-(1-Methylpiperidin-4-yl)-6-(1H-pyrrolo[2,3-b]pyridin-3-yl) quinazolin-4-amine] | 6
3 | c1cncc(CNc2ncnc3ccc(-c4c[nH]c5ncccc45)cc23)c1 [Compound 103, N-(Pyridin-3-ylmethyl)-6-(1H-pyrrolo[2,3-b]pyridin-3-yl)quinazolin-4-amine] | 1
4 | CN1CCN(c2ccc(CNc3ncnc4ccc(-c5c[nH]c6ncccc56)cc34)cn2)CC1 [Compound 104, N-((6-(4-Methylpiperazin-1-yl)pyridin-3-yl)methyl)-6-(1H-pyrrolo[2,3-b]pyridin-3-yl)quinazolin-4-amine] | 11
5 | O=C(c1ncnc2ccc(-c3c[nH]c4ncccc34)cc12)N1CCNC2(CC2)C1 [Compound 108, (6-(1H-Pyrrolo[2,3-b]pyridin-3-yl)quinazolin-4-yl)(4,7-diazaspiro [2.5]octan-7-yl)methanone] | 52
6 | COc1ccnc2[nH]cc(-c3ccn4ncc(C(=O)NC5CCN(C)CC5)c4c3)c12 [Compound 128, 5-(4-Methoxy-1H-pyrrolo[2,3-b]pyridin-3-yl)-N-(1-methylpiperidin-4-yl)pyrazolo[1,5-a]pyridine-3-carboxamide] | 1
7 | O=C1CC2(CCNCC2)Oc2cc(-c3c[nH]c4ncc(Cl)cc34)ccc21 [Compound 226, 7-(5-Chloro-1H-pyrrolo[2,3-b]pyridin-3-yl)spiro[chromane-2,4′-piperidin]-4-one] | 36
8 | CN1CCN(C(=O)c2cnn3ccc(-c4c[nH]c5ncc(F)cc45)cc23)CC1 [Compound 257, (5-(5-Fluoro-1H-pyrrolo[2,3-b]pyridin-3-yl)pyrazolo[1,5-a]pyridin-3-yl)(4-methylpiperazin-1-yl)methanone] | 16
9 | Cc1cnc2[nH]cc(-c3ccc4nccn4c3)c2c1 [Compound 280, 6-(5-methyl-1H-pyrrolo[2,3-b]pyridin-3-yl)imidazo[1,2-a]pyridine] | 4
10 | Cc1nc2c(F)cc(-c3c[nH]c4ncc(C5=CCN(C)CC5)cc34)cc2n1C(C)C [Compound 325, 4-Fluoro-1-isopropyl-2-methyl-6-(5-(1-methyl-1,2,3,6-tetrahydropyridin-4-yl)-1H-pyrrolo[2,3-b]pyridin-3-yl)-1H-benzo[d]imidazole] | 2
11 | Cc1nc2c(F)cc(-c3c[nH]c4ncc(N5CCN(C)CC5)cc34)cc2n1C(C)C [Compound 367, 4-Fluoro-1-isopropyl-2-methyl-6-(5-(4-methylpiperazin-1-yl)-1H-pyrrolo[2,3-b]pyridin-3-yl)-1H-benzo[d]imidazole] | 2
12 | CN1CCN(Cc2cnc3[nH]cc(-c4ccc5c(c4)C(C)(C)CNC5=O)c3c2)CC1 [Compound 435, 4,4-dimethyl-6-(5-((4-methylpiperazin-1-yl)methyl)-1H-pyrrolo[2,3-b]pyridin-3-yl)-3,4-dihydroisoquinolin-1(2H)-one] | 96
13 | Cc1nc2c(F)cc(-c3c[nH]c4ncc(C(=O)NC5CCN(C)CC5)cc34)cc2n1C(C)C [Compound 451, 3-(4-Fluoro-1-isopropyl-2-methyl-1H-benzo[d]imidazol-6-yl)-N-(1-methylpiperidin-4-yl)-1H-pyrrolo[2,3-b]pyridine-5-carboxamide] | 4
14 | CN1CCC(NC(=O)c2cnc3[nH]cc(-c4ccc5ncncc5c4)c3c2)CC1 [Compound 482, N-(1-Methylpiperidin-4-yl)-3-(quinazolin-6-yl)-1H-pyrrolo[2,3-b] pyridine-5-carboxamide] | 15
15 | CN1CCN(C(=O)c2cnc3[nH]cc(-c4ccn5ncc(-c6cnn(C)c6)c5c4)c3c2)CC1 [Compound 502, (3-(3-(1-Methyl-1H-pyrazol-4-yl)pyrazolo[1,5-a]pyridin-5-yl)-1H-pyrrolo[2,3-b]pyridin-5-yl)(4-methylpiperazin-1-yl)methanone] | 16
16 | Cc1nc2c(F)cc(-c3c[nH]c4ncc(C(=O)N5C6CCC5CN(C)C6)cc34)cc2n1C(C)C [Compound 535, (3-(4-Fluoro-1-isopropyl-2-methyl-1H-benzo[d]imidazol-6-yl)-1H-pyrrolo[2,3-b]pyridin-5-yl)(3-methyl-3,8-diazabicyclo[3.2.1]octan-8-yl)methanone] | 2
17 | Cc1nc2c(F)cc(-c3c[nH]c4ncc(C(=O)Nc5cnn(C6CCN(C)CC6)c5)cc34)cc2n1C(C)C [Compound 703, 3-(4-Fluoro-1-isopropyl-2-methyl-1H-benzo[d]imidazol-6-yl)-N-(1-(1-methylpiperidin-4-yl)-1H-pyrazol-4-yl)-1H-pyrrolo[2,3-b]pyridine-5-carboxamide] | 3

More lines, in order of falling EC50, values ahead:

Row | EC50 [nM] | SMILES
18 | 16 | CN1CCN(Cc2cnc3[nH]cc(-c4ccc5nccnc5c4)c3c2)CC1 [Compound 439, 6-(5-((4-Methylpiperazin-1-yl)methyl)-1H-pyrrolo[2,3-b]pyridin-3-yl) quinoxaline]
19 | 13 | Cc1nc2c(F)cc(-c3c[nH]c4ncc(CN5CCN(C)CC5)cc34)cc2n1C(C)C [Compound 409, 4-Fluoro-1-isopropyl-2-methyl-6-(5-((4-methylpiperazin-1-yl)methyl)-1H-pyrrolo[2,3-b]pyridin-3-yl)-1H-benzo[d]imidazole]
20 | 10 | Cn1cc(-c2ccnc3[nH]cc(-c4ccc5ncccc5c4)c23)cn1 [Compound 186, 6-(4-(1-methyl-1H-pyrazol-4-yl)-1H-pyrrolo[2,3-b]pyridin-3-yl) quinoline]
21 | 10 | Cc1cn2c(n1)CN(C(=O)c1cnc3[nH]cc(-c4cc5n(c4)CCNC5=O)c3c1)CC2 [Compound 573, 7-(5-(2-Methyl-5,6,7,8-tetrahydroimidazo[1,2-a]pyrazine-7-carbonyl)-1H-pyrrolo[2,3-b]pyridin-3-yl)-3,4-dihydropyrrolo[1,2-a]pyrazin-1(2H)-one]
22 | 9 | CN1CCN(C(=O)c2cnc3[nH]cc(-c4ccc5c(c4)OCCNC5=O)c3c2)CC1 [Compound 521, 8-(5-(4-Methylpiperazine-1-carbonyl)-1H-pyrrolo[2,3-b]pyridin-3-yl)-3,4-dihydrobenzo[f][1,4]oxazepin-5(2H)-one]
23 | 7 | Cc1nc2c(F)cc(-c3c[nH]c4ncc(C(=O)N5CCN(C)CC5)cc34)cc2n1C(C)C [Compound 493, (3-(4-Fluoro-1-isopropyl-2-methyl-1H-benzo[d]imidazol-6-yl)-1H-pyrrolo[2,3-b]pyridin-5-yl)(4-methylpiperazin-1-yl)methanone]
24 | 6 | COc1ccc(Nc2ncnc3ccc(-c4c[nH]c5ncccc45)cc23)cn1 [Compound 101, N-(6-Methoxypyridin-3-yl)-6-(1H-pyrrolo[2,3-b]pyridin-3-yl) quinazolin-4-amine]
25 | 4 | CN1CCN(c2cc(CNc3ncnc4ccc(-c5c[nH]c6ncccc56)cc34)ccn2)CC1 [Compound 105, N-((2-(4-Methylpiperazin-1-yl)pyridin-4-yl)methyl)-6-(1H-pyrrolo [2,3-b]pyridin-3-yl)quinazolin-4-amine]
26 | 3 | CN1CCC(NC(=O)c2ncnc3ccc(-c4c[nH]c5ncccc45)cc23)CC1 [Compound 106, N-(1-Methylpiperidin-4-yl)-6-(1H-pyrrolo[2,3-b]pyridin-3-yl) quinazoline-4-carboxamide]
27 | 3 | Cc1cn2c(n1)CN(C(=O)c1cnc3[nH]cc(-c4cc(F)c5nc(C)n(C(C)C)c5c4)c3c1)CC2 [Compound 577, (3-(4-Fluoro-1-isopropyl-2-methyl-1H-benzo[d]imidazol-6-yl)-1H-pyrrolo[2,3-b]pyridin-5-yl)(2-methyl-5,6-dihydroimidazo[1,2-a]pyrazin-7(8H)-yl)methanone]
28 | 2 | CN1CCC(Oc2ccc(Nc3ncnc4ccc(-c5c[nH]c6ncccc56)cc34)cn2)CC1 [Compound 102, N-(6-((1-Methylpiperidin-4-yl)oxy)pyridin-3-yl)-6-(1H-pyrrolo[2,3-b]pyridin-3-yl)quinazolin-4-amine]
29 | 2 | CN1CCC(C(=O)Nc2cnc3[nH]cc(-c4ccc5ncccc5c4)c3c2)CC1 [Compound 648, 1-Methyl-N-(3-(quinolin-6-yl)-1H-pyrrolo[2,3-b]pyridin-5-yl) piperidine-4-carboxamide]
30 | 2 | Cc1nc2c(F)cc(-c3c[nH]c4ncc(C(=O)Nc5cnn(C6CCNCC6)c5)cc34)cc2n1C(C)C [Compound 661, 3-(4-Fluoro-1-isopropyl-2-methyl-1H-benzo[d]imidazol-6-yl)-N-(1-(piperidin-4-yl)-1H-pyrazol-4-yl)-1H-pyrrolo[2,3-b]pyridine-5-carboxamide]

— patent US20230192686A1, “1H-PYRROLO[2,3-B]PYRIDINES AND PREPARATION AND USES THEREOF” (BioSplice Therapeutics, Inc., priority 2021, published 2023)
